{"source": "paper PMC3756485", "about": "(The Biochemical journal, 2012)", "key": {"PfENT4 [1]": {"target": "T1, PfENT4 (Plasmodium falciparum, UniProt Q8I2A8)", "format": "cell-based", "conditions": "60 min; for Uptake of radiolabeled substrate relative to H2O-injected oocytes: 1.5 μM radiolabeled compound; for Saturability of concentration-dependent uptake (Michaelis-Menten): concentrations up to 10 mM"}, "PvENT4 [2]": {"target": "T2, PvENT4 (Plasmodium vivax, UniProt A5K9X9)", "format": "cell-based", "conditions": "60 min; for Uptake of radiolabeled substrate relative to H2O-injected oocytes: 1.5 μM radiolabeled compound; for Saturability of concentration-dependent uptake (Michaelis-Menten): concentrations up to 10 mM"}, "PfENT4 [3]": {"target": "T1, PfENT4", "assay": "cell-based"}, "PvENT4 [4]": {"target": "T2, PvENT4", "assay": "cell-based"}, "P. falciparum parasites": {"test_system": "P. falciparum parasites", "conditions": "read-out: IC50, in vitro growth; P. falciparum FCR-3 strain parasites; cited from earlier work"}, "PfENT1": {"test_system": "PfENT1", "conditions": "cited from earlier work"}, "[5]": {"test_system": "P. falciparum phosphodiesterase-1", "conditions": "cited from earlier work"}, "[6]": {"conditions": "read-out: Inhibition of adenine uptake"}}, "data": [{"smiles": "O=c1[nH]cnc2c1ncn2[C@@H]1O[C@H](CO)[C@@H](O)[C@H]1O", "note": "[inosine]", "values": [{"measurement": "Uptake of radiolabeled substrate relative to H2O-injected oocytes", "setting": "PfENT4 [1]", "value": "greater uptake"}, {"measurement": "Uptake of radiolabeled substrate relative to H2O-injected oocytes", "setting": "PvENT4 [2]", "value": "greater uptake"}]}, {"smiles": "Cc1c[nH]c(=O)[nH]c1=O", "note": "[thymine]", "values": [{"measurement": "Uptake of radiolabeled substrate relative to H2O-injected oocytes", "setting": "PvENT4 [2]", "value": "less accumulation"}]}, {"smiles": "Nc1nc2c(ncn2[C@H]2C[C@H](O)[C@@H](CO)O2)c(=O)[nH]1", "note": "[2′-deoxyguanosine]", "values": [{"measurement": "Uptake of radiolabeled substrate relative to H2O-injected oocytes", "setting": "PfENT4 [1]", "value": "greater uptake"}, {"measurement": "Uptake of radiolabeled substrate relative to H2O-injected oocytes", "setting": "PvENT4 [2]", "value": "greater uptake"}]}, {"smiles": "Nc1ncnc2c1ncn2[C@H]1C[C@H](O)[C@@H](CO)O1", "note": "[2′-deoxyadenosine]", "values": [{"measurement": "Uptake of radiolabeled substrate relative to H2O-injected oocytes", "setting": "PfENT4 [1]", "value": "greater uptake"}, {"measurement": "Uptake of radiolabeled substrate relative to H2O-injected oocytes", "setting": "PvENT4 [2]", "value": "greater uptake"}]}, {"smiles": "O=[N+]([O-])c1ccc(CSc2ncnc3c2ncn3[C@@H]2O[C@H](CO)[C@@H](O)[C@H]2O)cc1", "note": "[NBMPR, nitrobenzylmercaptopurineriboside]", "values": [{"measurement": "Inhibition of adenine uptake", "setting": "PfENT4 [3]; PfENT4 oocytes, 150 nM [3H]adenine, 60 min, compound 10 μM", "value": "insensitive"}, {"measurement": "Inhibition of adenine uptake", "setting": "PvENT4 [4]; PvENT4 oocytes, 150 nM [3H]adenine, 60 min, compound 10 μM", "value": "insensitive"}]}, {"smiles": "CC(C)=CCNc1ncnc2nc[nH]c12", "note": "[isopentenyl adenine]", "values": [{"measurement": "IC50", "setting": "P. falciparum parasites", "value": 8.34, "unit": "µM"}]}, {"smiles": "Cc1cn([C@H]2C[C@H](O)[C@@H](CO)O2)c(=O)[nH]c1=O", "note": "[thymidine]", "values": [{"measurement": "Uptake of radiolabeled substrate relative to H2O-injected oocytes", "setting": "PfENT4 [1]", "value": "displayed uptake"}, {"measurement": "Uptake of radiolabeled substrate relative to H2O-injected oocytes", "setting": "PvENT4 [2]", "value": "displayed uptake"}]}, {"smiles": "Nc1ncnc2[nH]cnc12", "note": "[adenine]", "values": [{"measurement": "Ki", "setting": "PfENT4 [3]", "value": "7 ± 2", "unit": "µM"}, {"measurement": "Ki", "setting": "PvENT4 [4]", "value": "6 ± 2", "unit": "µM"}, {"measurement": "Uptake of radiolabeled substrate relative to H2O-injected oocytes", "setting": "PfENT4 [1]", "value": "greater uptake"}, {"measurement": "Saturability of concentration-dependent uptake (Michaelis-Menten)", "setting": "PfENT4 [1]; PfENT4 oocytes", "value": "not saturable"}, {"measurement": "Uptake of radiolabeled substrate relative to H2O-injected oocytes", "setting": "PvENT4 [2]", "value": "greater uptake"}, {"measurement": "Saturability of concentration-dependent uptake (Michaelis-Menten)", "setting": "PvENT4 [2]; PvENT4 oocytes", "value": "not saturable"}]}, {"smiles": "C/C(=C\\CNc1ncnc2[nH]cnc12)CO", "note": "[trans-zeatin]", "values": [{"measurement": "Ki", "setting": "PfENT4 [3]", "value": "20 ± 3", "unit": "µM"}, {"measurement": "Ki", "setting": "PvENT4 [4]", "value": "193 ± 21", "unit": "µM"}]}, {"smiles": "O=c1cc[nH]c(=O)[nH]1", "note": "[uracil]", "values": [{"measurement": "Uptake of radiolabeled substrate relative to H2O-injected oocytes", "setting": "PvENT4 [2]", "value": "less accumulation"}]}, {"smiles": "O=c1[nH]c(=O)c2[nH]c(=O)[nH]c2[nH]1", "note": "[urate]", "values": [{"measurement": "Competition for adenine transport", "setting": "PfENT4 [3]; PfENT4 oocytes, 150 nM [3H]adenine, 60 min, compound 500 μM", "value": "did not compete"}, {"measurement": "Competition for adenine transport", "setting": "PvENT4 [4]; PvENT4 oocytes, 150 nM [3H]adenine, 60 min, compound 500 μM", "value": "did not compete"}]}, {"smiles": "O=c1[nH]cnc2nc[nH]c12", "note": "[hypoxanthine]", "values": [{"measurement": "Inhibition of adenine uptake", "setting": "PfENT4 [3]; PfENT4 oocytes, 150 nM [3H]adenine, 60 min, concentration shown only in Figure 9", "value": "did not inhibit"}, {"measurement": "Inhibition of adenine uptake", "setting": "PvENT4 [4]; PvENT4 oocytes, 150 nM [3H]adenine, 60 min, concentration shown only in Figure 9", "value": "did not inhibit"}, {"measurement": "Uptake of radiolabeled substrate relative to H2O-injected oocytes", "setting": "PfENT4 [1]", "value": "no observed uptake"}, {"measurement": "Uptake of radiolabeled substrate relative to H2O-injected oocytes", "setting": "PvENT4 [2]", "value": "no observed uptake"}]}, {"smiles": "OCCN(CCO)c1nc(N2CCCCC2)c2nc(N(CCO)CCO)nc(N3CCCCC3)c2n1", "note": "[dipyridamole]", "values": [{"measurement": "inhibition at 10 µM", "setting": "PfENT4 [3]; [6]", "value": "~80", "unit": "%"}, {"measurement": "inhibition at 10 µM", "setting": "PvENT4 [4]; [6]", "value": "~80", "unit": "%"}, {"measurement": "Sensitivity of PfENT1 to inhibitor", "setting": "PfENT1", "value": "insensitive"}, {"measurement": "Inhibition of recombinant P. falciparum phosphodiesterase-1", "setting": "[5]", "value": "inhibits"}]}, {"smiles": "Nc1ncnc2c1ncn2[C@@H]1O[C@H](CO)[C@@H](O)[C@H]1O", "note": "[adenosine]", "values": [{"measurement": "Uptake of radiolabeled substrate relative to H2O-injected oocytes", "setting": "PfENT4 [1]", "value": "greater uptake"}, {"measurement": "Saturability of concentration-dependent uptake (Michaelis-Menten)", "setting": "PfENT4 [1]; PfENT4 oocytes", "value": "not saturable"}, {"measurement": "Uptake of radiolabeled substrate relative to H2O-injected oocytes", "setting": "PvENT4 [2]", "value": "greater uptake"}, {"measurement": "Saturability of concentration-dependent uptake (Michaelis-Menten)", "setting": "PvENT4 [2]; PvENT4 oocytes", "value": "not saturable"}]}, {"smiles": "O=c1[nH]cnc2c([C@@H]3N[C@H](CO)[C@@H](O)[C@H]3O)c[nH]c12", "note": "[Immucillin-H]", "values": [{"measurement": "Inhibition of [3H]adenine uptake at 7 mM compared with 2 mM", "setting": "PfENT4 [3]; PfENT4 oocytes, 150 nM [3H]adenine, 60 min", "value": "significantly greater inhibition"}]}, {"smiles": "Nc1ncnc2c1ncn2[C@@H]1O[C@H](COP(=O)(O)O)[C@@H](O)[C@H]1O", "note": "[AMP, adenosine monophosphate]", "values": [{"measurement": "Transport of radiolabeled substrate", "setting": "PfENT4 [1]; PfENT4 oocytes, 1.5 μM, in presence of 250 μM α,β-methyleneADP", "value": "not observed"}, {"measurement": "Transport of radiolabeled substrate", "setting": "PvENT4 [2]; PvENT4 oocytes, 1.5 μM, in presence of 250 μM α,β-methyleneADP", "value": "not observed"}, {"measurement": "Substrate of PfENT1", "setting": "PfENT1", "value": "not substrates"}]}]}
